Source: the supplement of paper PMC4862054
Each block holds one compound with its values, some of them ahead of it.

Tests used:
Conditions in all cases: 72 h
HCC1937 [1] = tested on: HCC1937
In short: (§1)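 The plates used were 384-well plates holding compound at 5 concentrations in 10-fold steps across a compound-specific 10,000-fold range, into which breast cancer cell lines were seeded in 20 µl suspension. Following 72 h incubation, CellTox Green fluorescence was read at 485/520 nm, and CellTiter-Glo luminescence was read after 10 min at room temperature. Normalisation on each plate used 0.1 % DMSO and a positive kill control. Dose-response curves gave the EC50, which was censored at the top concentration.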

BT-549 [2] = tested on: BT-549
In short: as §1

CAL-85-1 [3] = tested on: CAL-85-1
In short: as §1

HCC1143 [4] = tested on: HCC1143
In short: as §1

SK-BR-3 [5] = tested on: SK-BR-3
In short: as §1

CAL-51 [6] = tested on: CAL-51
In short: as §1

HCC1143 [7] = tested on: HCC1143; remark: listed apart in the source
Description: (§2)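 Drug sensitivity and resistance testing (DSRT) of breast cancer cell lines in 384-well plates, 5 concentrations in 10-fold dilutions over a compound-specific 10,000-fold range. After 72 h, cytotoxicity was read by CellTox Green fluorescence and viability by CellTiter-Glo luminescence (multiplexed), normalised to DMSO and benzethonium chloride controls. EC50 is the inflection point of the fitted dose-response curve (bottom asymptote free, so it can be relative for partial curves) and is censored at the highest tested concentration. Rows with DSS 0 (no meaningful response) were excluded.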

BT-474 [8] = tested on: BT-474
Description: as §2

MCF-10A [9] = tested on: MCF-10A
In short: as §1

MDA-MB-231 [10] = tested on: MDA-MB-231
In short: as §1

HCC1599 = tested on: HCC1599
In short: as §1

MDA-MB-468 [11] = tested on: MDA-MB-468
In short: as §1

MDA-MB-453 [12] = tested on: MDA-MB-453
In short: as §1

MFM-223 [13] = tested on: MFM-223
In short: as §1

Hs578T [14] = tested on: Hs578T
In short: as §1

MDA-MB-436 = tested on: MDA-MB-436
In short: as §1

HDQ-P1 [15] = tested on: HDQ-P1
In short: as §1

CAL-148 [16] = tested on: CAL-148
In short: as §1

DU-4475 [17] = tested on: DU-4475
In short: as §1

CAL-120 [18] = tested on: CAL-120
In short: as §1

BT-474 [19] = tested on: BT-474; remark: listed apart in the source
In short: as §1

MDA-MB-231 [20] = tested on: MDA-MB-231; remark: listed apart in the source
In short: (§3)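 Rows with a drug sensitivity score of zero were dropped, and EC50 was taken from the fitted percent-inhibition dose-response curve, censored at the highest concentration. Data were normalised on each plate to vehicle and a positive kill control and checked by Z'-factor. The assay seeded breast cancer cell lines in 20 µl onto 384-well plates pre-loaded with compound in 5 µl medium for 72 h, then added 2.5 µl CellTiter-Blue for 2 h at 37 °C and read fluorescence at 560/590 nm.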

HCC1937 [21] = tested on: HCC1937; remark: listed apart in the source
In short: as §3

MDA-MB-468 [22] = tested on: MDA-MB-468; remark: listed apart in the source
In short: as §3

BT-549 [23] = tested on: BT-549; remark: listed apart in the source
In short: as §3

MFM-223 [24] = tested on: MFM-223; remark: listed apart in the source
In short: as §3

Hs578T [25] = tested on: Hs578T; remark: listed apart in the source
In short: as §3

HCC1143 [26] = tested on: HCC1143; remark: listed apart in the source
In short: as §3

SK-BR-3 [27] = tested on: SK-BR-3; remark: listed apart in the source
In short: as §3

CAL-120 [28] = tested on: CAL-120; remark: listed apart in the source
In short: as §3

BT-474 [29] = tested on: BT-474; remark: listed apart in the source
In short: as §3

MCF-10A [30] = tested on: MCF-10A; remark: listed apart in the source
Description: as §2

MDA-MB-231 [31] = tested on: MDA-MB-231; remark: listed apart in the source
Description: as §2

HCC1937 [32] = tested on: HCC1937; remark: listed apart in the source
Description: as §2

BT-549 [33] = tested on: BT-549; remark: listed apart in the source
Description: as §2

MFM-223 [34] = tested on: MFM-223; remark: listed apart in the source
Description: as §2

CAL-85-1 [35] = tested on: CAL-85-1; remark: listed apart in the source
Description: as §2

Hs578T [36] = tested on: Hs578T; remark: listed apart in the source
Description: as §2

HDQ-P1 [37] = tested on: HDQ-P1; remark: listed apart in the source
Description: as §2

MDA-MB-453 [38] = tested on: MDA-MB-453; remark: listed apart in the source
In short: as §3

CAL-85-1 [39] = tested on: CAL-85-1; remark: listed apart in the source
In short: as §3

HDQ-P1 [40] = tested on: HDQ-P1; remark: listed apart in the source
In short: as §3

CAL-51 [41] = tested on: CAL-51; remark: listed apart in the source
In short: as §3

CAL-148 [42] = tested on: CAL-148; remark: listed apart in the source
In short: as §3

DU-4475 [43] = tested on: DU-4475; remark: listed apart in the source
In short: as §3

EC50, CellTiter-Glo (HCC1937 [1]): 1.6 µM
EC50, CellTiter-Glo (BT-549 [2]): 7.98 µM
EC50, CellTiter-Glo (HCC1143 [4]): 2.35 µM
EC50, CellTiter-Glo (SK-BR-3 [5]): 8.82 µM
SMILES: CN1CCc2c(c3ccccc3n2Cc2ccc(C(=O)NO)cc2)C1 [Tubastatin A]
EC50, CellTiter-Glo (CAL-85-1 [3]): 6.16 µM
EC50, CellTiter-Glo (CAL-51 [6]): 0.297 µM
EC50, CellTox Green (HCC1143 [7]): 0.297 µM
EC50, CellTox Green (BT-474 [8]): > 10 µM

EC50, CellTiter-Glo (MDA-MB-231 [10]): 0.00975 µM
EC50, CellTiter-Glo (HCC1599): 0.0645 µM
EC50, CellTiter-Glo (HCC1937 [1]): 0.0823 µM
EC50, CellTiter-Glo (MDA-MB-468 [11]): 0.00698 µM
EC50, CellTiter-Glo (BT-549 [2]): 0.0204 µM
EC50, CellTiter-Glo (MDA-MB-453 [12]): 0.0007 µM
EC50, CellTiter-Glo (HCC1143 [4]): 0.0225 µM
EC50, CellTiter-Glo (MDA-MB-436): 0.00359 µM
EC50, CellTiter-Glo (SK-BR-3 [5]): 0.00882 µM
EC50, CellTiter-Glo (BT-474 [19]): 0.00702 µM
EC50, CellTiter-Blue viability (MDA-MB-231 [20]): 0.0204 µM
EC50, CellTiter-Blue viability (HCC1937 [21]): 0.0111 µM
EC50, CellTiter-Blue viability (MDA-MB-468 [22]): 0.0137 µM
EC50, CellTiter-Blue viability (BT-549 [23]): 0.0235 µM
EC50, CellTiter-Blue viability (HCC1143 [26]): 0.0138 µM
EC50, CellTiter-Blue viability (SK-BR-3 [27]): 0.00858 µM
EC50, CellTiter-Blue viability (BT-474 [29]): > 1 µM
EC50, CellTiter-Blue viability (MDA-MB-453 [38]): 0.00623 µM
SMILES: CC[C@@H]1C(=O)N(C)c2cnc(Nc3ccc(C(=O)N[C@H]4CC[C@H](N5CCN(CC6CC6)CC5)CC4)cc3OC)nc2N1C(C)C [Volasertib]
EC50, CellTiter-Glo (MCF-10A [9]): 0.0332 µM
EC50, CellTiter-Glo (MFM-223 [13]): 0.00462 µM
EC50, CellTiter-Glo (CAL-85-1 [3]): 0.00851 µM
EC50, CellTiter-Glo (Hs578T [14]): 0.0769 µM
EC50, CellTiter-Glo (HDQ-P1 [15]): 0.0531 µM
EC50, CellTiter-Glo (CAL-51 [6]): 0.0169 µM
EC50, CellTiter-Glo (CAL-148 [16]): 0.00807 µM
EC50, CellTiter-Glo (DU-4475 [17]): 0.0255 µM
EC50, CellTiter-Glo (CAL-120 [18]): 0.0466 µM
EC50, CellTiter-Blue viability (MFM-223 [24]): 0.0016 µM
EC50, CellTiter-Blue viability (Hs578T [25]): 0.0368 µM
EC50, CellTiter-Blue viability (CAL-120 [28]): 0.00521 µM
EC50, CellTox Green (MCF-10A [30]): 0.00253 µM
EC50, CellTox Green (MDA-MB-231 [31]): 0.00318 µM
EC50, CellTox Green (HCC1937 [32]): 0.00049 µM
EC50, CellTox Green (BT-549 [33]): 0.0685 µM
EC50, CellTox Green (MFM-223 [34]): 0.00083 µM
EC50, CellTox Green (CAL-85-1 [35]): 0.0032 µM
EC50, CellTox Green (Hs578T [36]): 0.12 µM
EC50, CellTox Green (HCC1143 [7]): 0.0491 µM
EC50, CellTox Green (HDQ-P1 [37]): 0.0179 µM
EC50, CellTiter-Blue viability (CAL-85-1 [39]): 0.0104 µM
EC50, CellTiter-Blue viability (HDQ-P1 [40]): 0.379 µM
EC50, CellTiter-Blue viability (CAL-51 [41]): 0.0248 µM
EC50, CellTiter-Blue viability (CAL-148 [42]): 0.0116 µM
EC50, CellTiter-Blue viability (DU-4475 [43]): 0.0247 µM
